Read-outs that look alike come from different tables or passages of the source.
How the values were obtained:
Format in all cases: cell-based
5HT2A sensor [1] = test: 5HT2A sensor assay, antagonist mode (sLight1.3s HEK293T stable line); details: relative to 5-HT at 100 nM; for 5HT2A Antagonist mean @ 100 nM (%): 100 nM compound; for 5HT2A Antagonist mean @ 10 μM (%): 10 μM compound; for 5HT2A Antagonist mean @ 100 μM (%): 100 μM compound
In short: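 Inactivation score is computed from membrane dFF as (dFF(compound+5HT)−dFF(5HT))/dFF(5HT), with HBSS-only fluorescence as Fapo. Final concentrations: 5-HT 100 nM added first, then compound at 100 nM, 10 μM or 100 μM in 0.1% DMSO. Triplicates; FITC imaging, 5 fields per well.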

rat cortical neurons = test: Neurite outgrowth assay; details: Cortical neurone, 1 hour treatment at DIV 4, analysed DIV 7, fold vs DMSO control
Excerpt: Neurite outgrowth assay. Changes in the pattern of neurite outgrowth have been implicated in neurodegenerative disorders as well as traumatic injuries. The discovery of new compounds that can positively affect neuritogenesis are important for developing new therapeutics for neurological diseases. Measurement of neurite outgrowth of rat cortical neurons using an automated image-based assay was used to determine the neuroplastic effects of the compounds of the present invention. In some embodiments, a compound of the present invention increases the pattern of neurite outgrowth. In some embodiments, a compound of the present invention increases neurite average length compared to a control. In some embodiments, a compound of the present invention increases neurite branch points compared to a control. In some embodiments, a compound of the present invention increases neurite average length and neurite branch points compared to a control.
Neurite Outgrowth Assay. Rat cortical neurons (20,000 cells/well) were freshly isolated from embryonic day 18 rats and cultured in Neurobasal Medium (+B27). The cultured cells were plated in 96 well-plates (avoiding external wells). At DIV 4, the neurons were treated with compound or control (10 μM) for 1 hour followed by complete washout of the compound. At DIV 7, the neurons were analyzed. The experiments were performed in triplicate. Neurite outgrowth was measured analyzing the following parameters: Number of Cell Bodies, total neurite length (pixels), Root Count, Segments, Extremities Count and node points. Changes in the pattern of neurite outgrowth of the neurons were analyzed by immunocytochemistry against β-III-tubulin. Pictures were acquired by the CellInsight CX7 from Thermo Fisher and analyzed using its software. Results generated in the equipment were maximum neurite length, extremity count, root count, dendrite branch points, and total neurite length. The results were compared to DMSO control, representing the fold-change in neuronal outgrowth.

5HT2A sensor [2] = test: 5HT2A sensor assay, agonist mode (sLight1.3s HEK293T stable line); details: percent relative to 5-HT at 100 uM; for 5HT2A Agonist mean @ 100 nM (%): 100 nM compound; for 5HT2A Agonist mean @ 10 μM (%): 10 μM compound; for 5HT2A Agonist mean @ 100 μM (%): 100 μM compound
In short: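 Fluorescence change, dFF=(Fsat−Fapo)/Fapo, was taken from membrane images (460 nm excitation) before and after compound addition and scaled as % activation, with the DMSO mean as 0 and the 5HT mean as 100. The cells were sLight1.3s HEK293T in HBSS. Final compound levels were 100 μM, 10 μM and 100 nM in 0.1% DMSO, in triplicate.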

5HT2A = target: T1, 5HT2A (Homo sapiens, UniProt P28223); test: Calcium flux assay (Calcium secondary messenger pathway); details: agonist mode
T1 construct: expressed in transfected cells
T1 sequence (P28223 whole entry): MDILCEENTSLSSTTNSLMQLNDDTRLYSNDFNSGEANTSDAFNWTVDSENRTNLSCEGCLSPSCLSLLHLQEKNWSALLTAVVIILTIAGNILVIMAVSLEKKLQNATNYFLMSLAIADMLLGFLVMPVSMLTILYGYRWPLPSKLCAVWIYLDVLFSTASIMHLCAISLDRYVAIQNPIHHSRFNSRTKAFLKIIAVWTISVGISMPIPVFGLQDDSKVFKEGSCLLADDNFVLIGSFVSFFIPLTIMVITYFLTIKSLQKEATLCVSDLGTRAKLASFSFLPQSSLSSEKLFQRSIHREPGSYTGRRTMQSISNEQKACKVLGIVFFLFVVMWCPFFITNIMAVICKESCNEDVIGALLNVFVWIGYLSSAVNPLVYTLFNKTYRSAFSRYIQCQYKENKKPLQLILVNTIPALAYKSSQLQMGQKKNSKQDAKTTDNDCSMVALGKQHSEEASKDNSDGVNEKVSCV
Excerpt: Calcium Flux Assay. Calcium Secondary Messenger Pathway. The Calcium No Wash^PLUS assay monitors the activation of a GPCR (e.g., 5HT2A) via Gq secondary messenger signaling in a live cell, non-imaging assay format. Calcium mobilization in PathHunter® cell lines or other cell lines stably expressing Gq-coupled GPCRs (e.g., 5HT2A) is monitored using a calcium-sensitive dye that is loaded into cells. GPCR (e.g., 5HT2A) activation by a compound results in the release of calcium from intracellular stores and an increase in dye fluorescence that is measured in real-time. In some embodiments, the ability of a compound of the present invention to modulate 5-HT2A function is determined using a calcium flux assay. In some embodiments, a compound of the present invention activates a calcium flux assay.
Calcium Secondary Messenger Pathway. Cell lines were expanded from freezer stocks according to standard procedures. Cells were seeded in a total volume of 20 μL into black-walled, clear-bottom, Poly-D-lysine coated 384-well microplates and incubated at 37° C. for the appropriate time prior to testing. Assays were performed in 1× Dye Loading Buffer consisting of 1× Dye, 1× Additive A and 2.5 mM Probenecid in HBSS/20 mM Hepes. Probenicid was prepared fresh. Cells were loaded with dye prior to testing. Media was aspirated from cells and replaced with 20 μL Dye Loading Buffer. Cells were incubated for 30-60 minutes at 37° C.
For agonist determination, cells were incubated with sample to induce response. After dye loading, cells were removed from the incubator and 10 μL HBSS/20 mM Hepes was added. 3× vehicle was included in the buffer when performing agonist dose curves to define the EC80 for subsequent antagonist assays. Cells were incubated for 30 minutes at room temperature in the dark to equilibrate plate temperature. Intermediate dilution of sample stocks was performed to generate 4× sample in assay buffer. Compound agonist activity was measured on a FLIPR Tetra (MDS). Calcium mobilization was monitored for 2 minutes and 10 μL 4× sample in HBSS/20 mM Hepes was added to the cells 5 seconds into the assay.
Compound activity was analyzed using CBIS data analysis suite (ChemInnovation, CA). For agonist mode assays, percentage activity is calculated using the following formula: % Activity=100%×(mean RFU of test sample−mean RFU of vehicle control)/(mean MAX RFU control ligand−mean RFU of vehicle control).

[3] = read-out: Neurite Average Length @ 10 μM
[4] = read-out: Neurite Branch Points: @ 10 μM

Row | Structure (SMILES) | 5HT2A Antagonist mean @ 100 nM (%) (5HT2A sensor [1]) | 5HT2A Antagonist mean @ 10 μM (%) (5HT2A sensor [1]) | 5HT2A Antagonist mean @ 100 μM (%) (5HT2A sensor [1]) | fold induction at 10 µM (rat cortical neurons; [3]) | fold induction at 10 µM (rat cortical neurons; [4]) | 5HT2A Agonist mean @ 100 nM (%) (5HT2A sensor [2]) | 5HT2A Agonist mean @ 10 μM (%) (5HT2A sensor [2]) | 5HT2A Agonist mean @ 100 μM (%) (5HT2A sensor [2]) | EC50 (5HT2A) [µM]
1 | COc1cc(OC)c2c(ccn2C[C@@H](C)N(C)C)c1 [Example 63, (R)-1-(5,7-dimethoxy-1H-indol-1-yl)-N,N-dimethylpropan-2-amine] | B (inhibits 5HT response by 75% to 100%) | B (inhibits 5HT response by 75% to 100%) | A (inhibits 5HT response by >100%) | 1.5 to 3 | 1.5 to 3 | B (does not activate 5HT2A sensor assay in agonist mode) | B (does not activate 5HT2A sensor assay in agonist mode) | B (does not activate 5HT2A sensor assay in agonist mode) | > 10
2 | Cc1cn(C[C@@H](C)N(C)C)c2ccc(F)cc12 [Example 74, (R)-1-(5-fluoro-3-methyl-1H-indol-1-yl)-N,N-dimethylpropan-2-amine] | A (inhibits 5HT response by >100%) | A (inhibits 5HT response by >100%) | B (inhibits 5HT response by 75% to 100%) | 1.5 to 3 | 1.5 to 3 | B (does not activate 5HT2A sensor assay in agonist mode) | B (does not activate 5HT2A sensor assay in agonist mode) | B (does not activate 5HT2A sensor assay in agonist mode) | > 10
3 | Clc1ccc2c(ccn2CCN2CCCC2)c1 [Example 47, 5-chloro-1-(2-(pyrrolidin-1-yl)ethyl)-1H-indole] | A (inhibits 5HT response by >100%) | A (inhibits 5HT response by >100%) | A (inhibits 5HT response by >100%) | 1.5 to 3 | > 3 | B (does not activate 5HT2A sensor assay in agonist mode) | B (does not activate 5HT2A sensor assay in agonist mode) | B (does not activate 5HT2A sensor assay in agonist mode) | < 10
4 | CC[C@@H](Cn1ccc2cc(OC)ccc21)N(C)C [Example 76, (S)-1-(5-methoxy-1H-indol-1-yl)-N,N-dimethylbutan-2-amine] | A (inhibits 5HT response by >100%) | A (inhibits 5HT response by >100%) | A (inhibits 5HT response by >100%) | 1.5 to 3 | 1.5 to 3 | B (does not activate 5HT2A sensor assay in agonist mode) | B (does not activate 5HT2A sensor assay in agonist mode) | B (does not activate 5HT2A sensor assay in agonist mode) | > 10
5 | Clc1ccc2c(ccn2CCN2CCCCC2)c1 [Example 48, 5-chloro-1-(2-(piperidin-1-yl)ethyl)-1H-indole] | A (inhibits 5HT response by >100%) | A (inhibits 5HT response by >100%) | A (inhibits 5HT response by >100%) | 1.5 to 3 | 1.5 to 3 | B (does not activate 5HT2A sensor assay in agonist mode) | B (does not activate 5HT2A sensor assay in agonist mode) | B (does not activate 5HT2A sensor assay in agonist mode) | > 10

Reference: patent US11254640B2, “N-substituted indoles and other heterocycles for treating brain disorders” (The Regents of the University of California, priority 2019, dated 2022)
